Read-outs that look alike come from different tables or passages of the source.
Target: T1, androgen receptor (Homo sapiens, UniProt P10275, Q868H)
T1 construct: a human breast tumor cell line expressing androgen receptor; endogenous in cells; host or cells: MDA-MB453-MMTV clone 54-19 (only the MMTV-luciferase reporter was transfected)
T1 sequence (P10275 1-920 Q868H): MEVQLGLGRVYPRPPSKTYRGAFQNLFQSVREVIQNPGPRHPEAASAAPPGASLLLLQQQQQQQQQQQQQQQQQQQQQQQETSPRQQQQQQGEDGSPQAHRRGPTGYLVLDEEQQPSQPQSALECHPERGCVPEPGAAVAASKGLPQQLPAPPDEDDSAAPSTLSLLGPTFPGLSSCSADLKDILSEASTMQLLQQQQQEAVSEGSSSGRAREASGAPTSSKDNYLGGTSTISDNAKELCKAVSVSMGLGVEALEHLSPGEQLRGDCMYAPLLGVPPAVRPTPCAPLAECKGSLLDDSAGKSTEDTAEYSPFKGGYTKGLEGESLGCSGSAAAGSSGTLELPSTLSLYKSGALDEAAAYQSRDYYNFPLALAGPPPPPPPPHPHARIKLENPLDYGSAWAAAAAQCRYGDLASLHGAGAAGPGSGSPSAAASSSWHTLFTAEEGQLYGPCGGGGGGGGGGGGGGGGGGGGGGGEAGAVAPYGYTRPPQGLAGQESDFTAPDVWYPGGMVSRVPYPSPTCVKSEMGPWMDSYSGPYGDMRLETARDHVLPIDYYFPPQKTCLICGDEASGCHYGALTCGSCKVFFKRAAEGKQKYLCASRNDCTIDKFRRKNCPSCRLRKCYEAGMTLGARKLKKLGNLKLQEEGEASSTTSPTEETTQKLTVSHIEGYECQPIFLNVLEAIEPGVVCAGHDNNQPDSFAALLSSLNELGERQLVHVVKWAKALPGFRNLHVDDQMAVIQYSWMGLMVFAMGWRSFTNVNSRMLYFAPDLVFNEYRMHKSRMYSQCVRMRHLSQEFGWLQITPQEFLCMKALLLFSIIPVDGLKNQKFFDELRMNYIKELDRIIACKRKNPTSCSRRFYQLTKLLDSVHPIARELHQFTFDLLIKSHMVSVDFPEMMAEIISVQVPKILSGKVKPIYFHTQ
Experiment: AR antagonist cell assay (MDA-MB453-MMTV clone 54-19, luciferase reporter)
Type: cell-based
Details: 100 pM DHT, 17 hr, mean of multiple tests
Protocol: The compounds ability to antagonize the effects of androgen on the androgen receptor were determined in a whole cell assay as described immediately below.
Experimental Procedure for AR Antagonist Cell Assay
This cell line is a stable transfected cell line with MDA-MB453 cell background (a human breast tumor cell line expressing androgen receptor). A MMTV minimal promoter containing ARE was first cloned in front of a firefly luciferase reporter gene. Then the cascade was cloned into transfection vector pUV120puro. Electroporation method was used for transfecting MDA-MB-453 cell. Puromycin resistant stable cell line was selected.
Cell Culture Media and Reagents:
Culture medium: DMEM (high glucose, Gibco cat #: 11960-044), 10% FBS, and 1% L-glutamine
Plating medium: DMEM (phenol red free), 10% charcoal treated HyClone serum, 1% L-glutamine
Assay medium: DMEM (phenol red free), 1% charcoal treated HyClone serum, 1% L-glutamine, and 1% penicillin/streptomycin
3× luciferase buffer: 2% beta-mercaptoethanol, 0.6% ATP, 0.0135% luciferine in cell lysis buffer
• 1. Cells are maintained in culture medium, splitting cells when they reach 80-90% confluence • 2. To test compounds, 10,000 cells/well are plated to opaque 96 cell culture plate in 100 ul/well plating medium, culture for overnight at 37° C. in cell culture incubator • 3. Carefully remove plating medium, then add 80 ul/well of pre-warmed assay medium, add 10 ul/well testing compound (final concentration at) 1000 nM, 200 nM, 40 nM, 8 nM, 1.6 nM, and 0.32 nM), incubate at 37° C. for 30 minutes • 4. Add 10 ul/well freshly prepared DHT (final concentration at 100 pM) to each well, incubate at 37° C. for 17 hr (overnight) • 5.
The results are reported as the mean of multiple tests as described below (the numbers of tests are indicated in the footnote). N.D. denotes that the compound was not tested.

[1] = AR Cell IC50, MDA-MB453-MMTV clone 54-19 cells

Structure (SMILES)	IC50 [1] [µM]	IC50 (MDA-MB453-MMTV clone 54-19 cells, read-out: AR Cell IC50) [µM]
N#Cc1ccc(O[C@@H]2CCCC[C@H]2C#N)cc1C(F)(F)F (single isomer, unassigned) [Example 72, (trans)-(−)-4-(2-Cyano-cyclohexyloxy)-2-trifluoromethyl-benzonitrile]	0.012	–
N#Cc1ccc(O[C@@H]2CCCCC2C#N)cc1C(F)(F)F (stereo in doubt) [Example 14, -4-(2-Cyano-cyclohexyloxy)-2-trifluoromethyl-benzonitrile]	0.013	–
CC1CCCCC1Oc1ccc(C#N)c(C(F)(F)F)c1 (stereo not drawn) [Example 8, 4-(2-Methyl-cyclohexyloxy)-2-trifluoromethyl-benzonitrile]	–	0.494

— patent publication US7670613B2, “Androgen modulators” (Pfizer Inc., priority 2004, dated 2010)
